Measurements reported in patent US20060100431A1, “Biologically active compounds” (Amura Therapeutics Limited, priority 2002, published 2006).

Legend:
Assay type in all cases: biochemical
human cathepsin B = target: T1, human cathepsin B (Homo sapiens, UniProt P07858); experiment: Cathepsin B peptidase activity assay (Ki); conditions: read-out: Ki, inhibitors of cathepsin B
T1 construct: purchased CN Biosciences
In short: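 Buffer: 10 mM bis-tris-propane pH 6.5, 1 mM EDTA, 5 mM 2-mercaptoethanol, 1 mM CaCl2; DMSO <1%. Ki assumed reversible, pure-competitive, from Ki^app=Ki(1+[So]/KM^app) by non-linear regression.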

Bovine cathepsin S = target: T2, Bovine cathepsin S (Bos taurus, UniProt P25326); experiment: Cathepsin S peptidase activity assay, bovine enzyme (Ki); conditions: species of cathepsin S not given; read-out: Ki, inhibitors of cathepsin S
T2 construct: purchased CN Biosciences
In short: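 Bovine cathepsin S activity followed by fluorescence increase from substrate conversion to product over time, enzyme added to start the reaction, at 25±1° C. Buffer 10 mM bis-tris-propane pH 6.5 with 1 mM EDTA, 5 mM 2-mercaptoethanol, 1 mM CaCl2; DMSO kept below 1% (vol./vol.).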

Wild-type cruzipain = Wild-type cruzipain (Trypanosoma cruzi, UniProt P25779); experiment: Trypanosoma cruzi cruzipain peptidase activity assay (Ki); conditions: read-out: Ki, inhibitors of cruzain and cruzipains
In short: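 Native cruzipain from T. cruzi Dm28 epimastigotes, 2.5 nM, in 100 mM sodium phosphate pH 6.75 with 1 mM EDTA and 10 mM L-cysteine, 25 °C, DMSO <1%. Rates taken from continuous fluorogenic substrate read; Ki by regression assuming reversible pure-competitive inhibition.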

CPB2.8ΔCTE = target: T3, CPB2.8ΔCTE (Leishmania mexicana, UniProt P36400); experiment: Leishmania mexicana cysteine protease B (CPB) peptidase activity assay (Ki); conditions: Ki, inhibitors of Leismania mexicana CPB protease
T3 construct: Wild-type recombinant CPB without the C-terminal extention (i.e. CPB2.8ΔCTE); Dr. Jeremy Mottram (Wellcome Centre for Molecular Parasitology, University of Glasgow)
In short: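 Apparent Ki was derived by regression of activity against inhibitor concentration, assuming pure-competitive reversible binding. Reaction: 0.25 nM CPB lacking the C-terminal extension, pH 5.5 acetate buffer (1 mM EDTA, 200 mM NaCl, 10 mM DTT), 25 °C, followed by continuous substrate fluorescence.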

Measured: Ki

Chain of Wild-type cruzipain (P25779 whole entry): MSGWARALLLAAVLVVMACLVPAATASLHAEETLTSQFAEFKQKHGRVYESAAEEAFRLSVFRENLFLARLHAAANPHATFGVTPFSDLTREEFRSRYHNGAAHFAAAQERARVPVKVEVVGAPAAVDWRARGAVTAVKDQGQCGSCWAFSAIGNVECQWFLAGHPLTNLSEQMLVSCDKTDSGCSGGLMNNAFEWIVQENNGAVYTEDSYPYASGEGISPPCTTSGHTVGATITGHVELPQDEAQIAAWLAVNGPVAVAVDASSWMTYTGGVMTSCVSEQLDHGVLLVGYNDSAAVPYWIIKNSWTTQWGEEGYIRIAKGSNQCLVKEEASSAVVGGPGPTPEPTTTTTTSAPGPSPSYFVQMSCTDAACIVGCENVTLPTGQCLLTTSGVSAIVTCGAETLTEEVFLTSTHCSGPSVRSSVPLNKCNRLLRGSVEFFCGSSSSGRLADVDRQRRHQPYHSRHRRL
T3 sequence (P36400 126-343, stated change not applied): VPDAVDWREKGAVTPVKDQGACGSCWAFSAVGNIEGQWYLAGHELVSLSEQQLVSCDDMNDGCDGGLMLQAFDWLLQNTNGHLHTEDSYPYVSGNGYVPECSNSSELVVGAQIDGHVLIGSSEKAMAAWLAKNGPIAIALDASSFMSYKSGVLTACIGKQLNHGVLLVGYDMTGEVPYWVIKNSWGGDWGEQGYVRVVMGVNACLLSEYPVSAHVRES
T2 sequence (P25326 115-331): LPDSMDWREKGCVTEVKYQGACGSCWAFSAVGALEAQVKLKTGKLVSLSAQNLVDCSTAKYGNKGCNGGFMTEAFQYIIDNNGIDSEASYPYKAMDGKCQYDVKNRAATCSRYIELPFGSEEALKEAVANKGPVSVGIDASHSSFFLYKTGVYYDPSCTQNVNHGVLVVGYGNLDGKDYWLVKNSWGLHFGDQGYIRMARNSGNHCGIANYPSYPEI

Cc1cccc(C[C@H](NC(=O)C(c2ccccc2)c2ccccc2)C(=O)N2CC[C@@H]3[C@H]2C(=O)CN3C(=O)c2csc3ccccc23)c1 [Example 314]
< 5 µM: all assays above

O=C(N[C@@H](Cc1cccc(F)c1)C(=O)N1CC[C@@H]2[C@H]1C(=O)CN2C(=O)c1csc2ccccc12)C(c1ccccc1)c1ccccc1 [Example 315, (3aR,6aS)-N-[(1S)-2-[4-(Benzo[b]thiophene-3-carbonyl)-6-oxo-hexahydro-pyrrolo[3,2-b]pyrrole-1-yl]-1-(3-fluoro-benzyl)-2-oxo-ethyl]-2,2-diphenyl-acetamide]
< 5 µM: all assays above

O=C(N[C@@H](Cc1cc(F)cc(F)c1)C(=O)N1CC[C@@H]2[C@H]1C(=O)CN2C(=O)c1csc2ccccc12)C(c1ccccc1)c1ccccc1 [Example 316, (3aR,6aS)-N-[(1S)-2-[4-(Benzo[b]thiophene-3-carbonyl)-6-oxo-hexahydro-pyrrolo[3,2-b]pyrrole-1-yl]-1-(3,5-difluoro-benzyl)-2-oxo-ethyl]-2,2-diphenyl-acetamide]
< 5 µM: all assays above

O=C(N[C@@H](Cc1ccc(O)cc1)C(=O)N1CC[C@@H]2[C@H]1C(=O)CN2C(=O)c1csc2ccccc12)C(c1ccccc1)c1ccccc1 [Example 329, (3aR,6aS)-N-[(1S)-2-[4-(Benzo[b]thiophene-3-carbonyl)-6-oxo-hexahydro-pyrrolo[3,2-b]pyrrole-1-yl]-1-(4-hydroxy-benzyl)-2-oxo-ethyl]-2,2-diphenyl-acetamide]
< 5 µM: all assays above

O=C(N[C@@H](Cc1ccc(O)cc1)C(=O)N1CC[C@@H]2[C@H]1C(=O)CN2C(=O)c1ccccc1)C(c1ccccc1)c1ccccc1 [Example 330, (3aR,6aS)-N-[(1S)-2-(4-Benzoyl-6-oxo-hexahydro-pyrrolo[3,2-b]pyrrol-1-yl)-1-(4-hydroxy-benzyl)-2-oxo-ethyl]-2,2-diphenyl-acetamide]
< 5 µM: all assays above
